Data set [1] can be described thus: Control experiments degradation analysis without cells. In kind it is physicochemical. The note with it: Proteostat-stained fibrils without cells, 37°C, 30 min vs 3 d. The procedure:
Control experiments degradation analysis: To check changes of fibril aggregation without cells fluorescence microscopy measurements (Leica DMi8 microscope, 10x air objective, Leica MC170 HD camera, λem = 527/30 nm, λex = 480/40 nm) were performed analogously to the cell‐experiments with PA1‐3. Briefly, 4 µL of the preformed peptide fibrils (1 mg mL^−1) were diluted with 4 µL Proteostat (Enzo Life Science, 1 µL stock in 999 µL PBS) and incubated for 10 min and further diluted with medium to receive a final peptide concentration of 20 µg mL^−1. The fibril aggregates were monitored after 30 min incubation at 37°C and for the evaluation of aggregate degradation, the samples were further incubated at 37°C for 3 d and analyzed without any additional washing step. […] The evaluation of aggregate size and number was conducted by analyzing Proteostat stained aggregates via the 3D objects counter function of ImageJ 1.53f51 for at least three individual measurements (area 1331.2 µm × 1331.2 µm) of three individually repeated experiments. […]
Aggregate analysis was conducted via fluorescence microscopy by cumulating triplicate measurements. […]

The subject of data set [2] is HeLa cells. As to the kind of experiment: Confocal microscopy degradation study with PA1-3 and HeLa cells. In kind it is in vitro ADME. The conditions noted are these: for degradation of aggregates > 10 µm^2 over 3 days: HeLa cells, 4 µg peptide (20 µg mL-1) added to 40,000 cells, 37°C, 30 min vs 3 d, Proteostat stain, confocal microscopy. The procedure: Confocal laser scanning microscopy and degradation study with PA1‐3 and HeLa cells: HeLa cells were seeded one day prior to conducting the assay (40000/well) in an 8‐well IBIDI slide. 4 µL of the preformed peptide fibrils (1 mg mL^−1) were diluted with 4 µL Proteostat (Enzo Life Science, 1 µL stock in 999 µL PBS) and incubated for 10 min and further diluted with medium to receive a final peptide concentration of 20 µg mL^−1. The nucleus of the HeLa cells was stained with Hoechst 33 342 (NucBlue, Thermo Fisher Scientific). The peptide solution was transferred to the HeLa cells and incubated for 30 min at 37°C before washing three times with PBS. The interaction of fibril clusters with cells was monitored after 30 min incubation time on a Stellaris 8 confocal laser scanning microscope (Leica) equipped with a 20x air objective and laser excitation wavelengths of 405 nm (Hoechst) and 561 nm (Proteostat). For the evaluation of aggregate degradation, the samples were further incubated at 37°C for 3 d and analyzed without any additional washing step. The evaluation of aggregate size and number was conducted by analyzing Proteostat stained aggregates via the 3D objects counter function of ImageJ 1.53f51 for 3 individual measurements (area 581.25 µm × 581.25 µm). […] The number of aggregates larger than 10 µm^2 were counted via the 3D objects counter function of ImageJ 1.53f51. The mean number and standard deviations were determined by averaging at least three technical triplicates.

Data set [3] can be described thus: Microscopic aggregation (fluorescence / confocal microscopy, derived count rate). In kind it is physicochemical. The conditions noted are these: for formation of µm-sized aggregates (in words): fibrils preformed at 1 mg mL-1 in PBS, ThT or Proteostat stain, widefield or confocal microscopy, derived count rate > 1000 kcps as criterion; for assembly in water (fluorescence microscopy): incubated 1 d in pure MilliQ water, ThT stain.

“Also recorded” adds a separate entry of the source. Where a SMILES comes first, the peptide text is derived from it. The star is where a group is joined. Palmitoyl = CCCCCCCCCCCCCCCC(=O)*

The values that follow come from publication PMC11468294, “Peptide Amphiphiles as Biodegradable Adjuvants for Efficient Retroviral Gene Delivery” (Advanced Healthcare Materials, 2023).

As for `CCCCCCCCCCCCCCCC(=O)N[C@@H](Cc1ccccc1)C(=O)N[C@@H](CCC(N)=O)C(=O)N[C@@H](Cc1ccccc1)C(=O)N[C@@H](CCCCN)C(=O)N[C@@H](Cc1ccccc1)C(=O)N[C@@H](CCCCN)C(=O)N[C@@H](CS)C(N)=O` [PA2] (Palmitoyl-FQFKFKC-NH2), in data set [1], the “change of aggregate size and number without cells” value is “not significantly changing in size and number”. The “degradation of aggregates > 10 µm^2 over 3 days” value in data set [2] is reported as 52%. The “aggregate size (large aggregates)” value in data set [2] (confocal aggregate size analysis with HeLa cells) is reported as over 50 µm^2. In data set [3], the “formation of µm-sized aggregates (in words)” value is “micrometer‐sized clusters of fibrils were formed; also recorded: high aggregation; also recorded: form µm‐sized aggregates” and the “assembly in water (fluorescence microscopy)” value is given as “distinct fibrils”.

In the case of C16-VVVAAAKKK-NH2 [PA1], the “change of aggregate size and number without cells” value in data set [1] is “not significantly changing in size and number”. For the same compound, in data set [2], the “degradation of aggregates > 10 µm^2 over 3 days” value was 94%. In addition, in data set [3], the “formation of µm-sized aggregates (in words)” value is “micrometer‐sized clusters of fibrils were formed; also recorded: less aggregation; also recorded: form µm‐sized aggregates” and the “assembly in water (fluorescence microscopy)” value was “distinct fibrils”.
